The values that follow come from PMC8821706, “Design and synthesis of novel nitrothiazolacetamide conjugated to different thioquinazolinone derivatives as anti-urease agents” (Scientific Reports, 2022).

Experiment [1] concerns urease. The following applies: cited from earlier work.
Experiment [2] has as its target T1, urease (Canavalia ensiformis, UniProt P07374). The experiment in a line: biochemical. In kind it is biochemical, jack bean. Conditions: for improvement in potency compared to thiourea: ratio of urease IC50 versus thiourea (positive control). How it is done: In vitro anti-urease activity of synthesized compounds, 8a-n were performed based on the […] method against urease compared with thiourea as the reference inhibitor.
Urease inhibition effects of the synthesized compounds were determined according to the previously reported procedure[47]–[49]. 100 μL of the synthesized compounds at different concentrations was added to 850 μL of urea as substrate and 15 μL urease (0.135 units dissolved in PBS, pH 7.4). After 30 min, to 100 μL of the incubated solution, 500 μL solution I (5.0 g phenol and 25.0 mg sodium nitroprusside in 500 mL water) was added followed by the addition of 500 μL of solution II (2.5 g sodium hydroxide, 4.2 mL sodium hypochlorite, and 5% chlorine in 500 mL water) which was further incubated at 37 °C for 30 min. The absorbance was determined by measuring indophenols at 625 nm. Thiourea was used as the standard inhibitor for urease. The IC50 values for all synthesized compounds were calculated using GraphPad Prism software (GraphPad Software, Inc., San Diego, CA).

Experiment [3] relates to Cryptococcus neoformans (H99). The experiment in a line: Antimicrobial activity, microbroth dilution (CLSI). The experiment is classed as cell-based. Conditions: tested 1 to 512 μg/ml. How it is done:
(§1) The antimicrobial activity of compounds against the microorganisms including C. neoformans (H99), and clinical isolate of P.vulgaris was assessed using the microbroth dilution method, as recommended by the Clinical and Laboratory Standards Institute (CLSI) (M07-A9 for bacteria; M27-A3 for yeasts). The compounds were diluted, and stock solutions of 20 mg/ml in DMSO were prepared. Mueller–Hinton Broth (HiMedia) and RPMI-1640 (Sigma) were prepared as recommended for antimicrobial susceptibility testing of bacterial and fungal strains, respectively. Two-fold dilutions were made in the range of 1–512 μg/ml for tested compounds. The microbroth dilution test was accomplished using a 96-well microtiter plate, containing growth control (yeast culture in broth media) and sterility control (broth media without fungal culture). The antimicrobial susceptibility test was accomplished by adding a cell suspension adjusted to the 0.5 McFarland standard (1–2 × 10^8 CFU/mL for bacterial strains; 1−5 × 10^6 cells/ml for yeast) to different concentrations of tested compounds. […] All experiments were performed in duplicates.
In general terms: In broth dilution the organism is exposed to a series of concentrations in liquid medium.

In experiment [4] the test system is clinical isolate of Proteus vulgaris. The experiment in a line: Antimicrobial activity, microbroth dilution (CLSI). In kind it is cell-based. Conditions: tested 1 to 512 μg/ml. How it is done:
as §1

In experiment [5] the test system is C. neoformans (H99). The experiment in a line: Anti-ureolytic activity, colorimetric microdilution in urea broth. The experiment is classed as cell-based. The following applies: Cryptococcus neoformans, 72 h; 560 nm, after three days; read-out: IC50 (µg/ml) of C. neoformans (anti-ureolytic effect). How it is done: (§2) The colorimetric microdilution technique using urea broth media (Merck, supplemented with glucose; pH = 6 for C. neoformans) was used to examine the urolytic activity of C. neoformans (H99), and clinical isolate of P.vulgaris treated with tested substances. Compounds in the concentration range of 1–512 μg/mL were exposed to ureolytic microorganisms, and the color of the medium was evaluated visually and spectroscopically at 560 nm after three days for C. neoformans and 24 h for P. vulgaris. The positive control, which included ureolytic bacteria but no drugs, changed color from yellow to dark pink or magenta. This shifts, allowing the determination of the inhibitory activity of compounds against urease activity of organisms even without a microtiter plate reader[57],[58].

Experiment [6] concerns clinical isolate of P.vulgaris. The description is as above. Conditions: Proteus vulgaris; 560 nm, after 24 h; read-out: IC50 (µg/ml) of P. vulgaris (anti-ureolytic effect). The experiment is classed as cell-based. How it is done: as §2
Experiment [7] concerns the target T1, urease. The experiment in a line: Kinetic study of urease inhibition (Lineweaver–Burk). The experiment is classed as biochemical, jack bean. How it is done: The mechanism of urease inhibition was investigated by enzyme kinetics, following the similar procedure of the urease inhibition assay. Lineweaver–Burk graphics were used to estimate the type of inhibition.
The kinetic study for the inhibition of urease by compound 8h was carried out using four different concentrations of inhibitor. For the kinetic study of urease, compound 8h was used at the concentrations of 0, 1, 2, and 4 μM. The Lineweaver–Burk reciprocal plot was constructed by plotting 1/V against 1/[S] at variable concentrations of the substrate urea (3.12–100 mM). The inhibition constant Ki was calculated by the plot of slopes versus the corresponding concentrations of the compound 8h.

For experiment [8], the system named is H. pylori. On the set-up: method as in PMID 10394014. The following applies: cited from earlier work.

Values after ≈ are worked out from the molar mass of the structure shown. Like-named read-outs stand apart in the source and are kept apart here.

T1 sequence (P07374 whole entry, looked up): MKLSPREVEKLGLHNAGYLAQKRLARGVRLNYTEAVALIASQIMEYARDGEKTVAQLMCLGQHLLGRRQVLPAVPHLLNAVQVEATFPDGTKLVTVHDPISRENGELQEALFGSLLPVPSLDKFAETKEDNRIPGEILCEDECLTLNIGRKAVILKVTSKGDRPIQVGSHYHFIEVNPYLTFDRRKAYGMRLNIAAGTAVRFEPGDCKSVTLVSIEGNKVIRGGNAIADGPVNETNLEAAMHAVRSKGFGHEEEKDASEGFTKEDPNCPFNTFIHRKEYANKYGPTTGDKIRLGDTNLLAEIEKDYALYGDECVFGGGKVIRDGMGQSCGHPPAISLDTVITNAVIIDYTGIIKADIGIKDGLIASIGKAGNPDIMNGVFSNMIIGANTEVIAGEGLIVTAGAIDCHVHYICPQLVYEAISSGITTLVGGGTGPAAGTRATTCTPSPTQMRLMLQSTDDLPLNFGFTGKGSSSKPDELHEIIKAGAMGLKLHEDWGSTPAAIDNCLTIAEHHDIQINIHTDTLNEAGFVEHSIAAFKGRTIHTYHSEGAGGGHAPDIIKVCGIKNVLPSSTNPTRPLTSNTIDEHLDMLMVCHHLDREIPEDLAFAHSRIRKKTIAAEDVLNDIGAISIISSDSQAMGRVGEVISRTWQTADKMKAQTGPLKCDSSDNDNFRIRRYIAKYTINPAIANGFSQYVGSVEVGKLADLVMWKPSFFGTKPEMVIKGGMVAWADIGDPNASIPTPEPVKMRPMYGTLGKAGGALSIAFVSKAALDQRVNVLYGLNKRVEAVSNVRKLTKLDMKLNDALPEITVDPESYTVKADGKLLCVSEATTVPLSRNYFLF

With `O=C(Cn1c(Cc2ccc(Cl)cc2)nc2ccccc2c1=O)N/N=C/c1ccco1` [A], the “IC50 (urease)” value in experiment [1] (2,3-disubstituted quinazolin-4(3H)-ones, Fig. 1A) was 1.55 ± 0.11 µg/mL (≈ 3.68 µM).

In the case of `CCc1nc2ccccc2c(=O)n1CC(=O)NNC(=O)c1cc2cc(Br)ccc2oc1=O` [B], in experiment [1] (quinazolinone-coumarin derivatives, Fig. 1B), the “IC50 (urease)” value is 1.26 ± 0.07 µg/mL (≈ 2.53 µM). `CCNc1nnc(Cn2c(Cc3ccc(F)cc3)nc3ccccc3c2=O)s1` [C]: the “IC50 (urease)” value in experiment [1] (quinazolin-4(3H)-ones, Fig. 1C) was 1.88 ± 0.17 µg/mL (≈ 4.75 µM). In the case of `O=C(CSc1nc2ccccc2c(=O)n1-c1ccccc1)Nc1ncc([N+](=O)[O-])s1` [Compound 8a, N-(5-nitrothiazol-2-yl)-2-((4-oxo-3-phenyl-3,4-dihydroquinazolin-2-yl)thio)acetamide], in experiment [2], the IC50 is 4.72 ± 0.26 µM and the “improvement in potency compared to thiourea” value is “around fivefold”. In experiment [2], `O=C(CSc1nc2ccccc2c(=O)n1-c1ccc(Cl)cc1)Nc1ncc([N+](=O)[O-])s1` [Compound 8b, 2-((3-(4-chlorophenyl)-4-oxo-3,4-dihydroquinazolin-2-yl)thio)-N-(5-nitrothiazol-2-yl)acetamide] showed an IC50 of 2.34 ± 0.19 µM.

`O=C(CSc1nc2ccccc2c(=O)n1-c1ccc(Br)cc1)Nc1ncc([N+](=O)[O-])s1` [Compound 8c, 2-((3-(4-bromophenyl)-4-oxo-3,4-dihydroquinazolin-2-yl)thio)-N-(5-nitrothiazol-2-yl)acetamide]: the IC50 in experiment [2] turned out to be 2.22 ± 0.09 µM; in experiment [5] it was 174 ± 4.9 µg/mL (≈ 335 µM); in experiment [6], 383 ± 5.1 µg/mL (≈ 739 µM). In addition, the minimal inhibitory concentration (MIC) in experiment [3] and in experiment [4] was over 512 µg/mL in each case.

In turn, `COc1ccc(-n2c(SCC(=O)Nc3ncc([N+](=O)[O-])s3)nc3ccccc3c2=O)cc1` [Compound 8d, 2-((3-(4-methoxyphenyl)-4-oxo-3,4-dihydroquinazolin-2-yl)thio)-N-(5-nitrothiazol-2-yl)acetamide] registered an IC50 in experiment [2] of 2.78 ± 0.32 µM.

Compound `O=C(CSc1nc2ccccc2c(=O)n1Cc1ccccc1)Nc1ncc([N+](=O)[O-])s1` [Compound 8e, 2-((3-benzyl-4-oxo-3,4-dihydroquinazolin-2-yl)thio)-N-(5-nitrothiazol-2-yl)acetamide] showed an IC50 in experiment [2] of 3.83 ± 0.17 µM. The same measure, in the same setting: next, `Cc1ccc(Cn2c(SCC(=O)Nc3ncc([N+](=O)[O-])s3)nc3ccccc3c2=O)cc1` [Compound 8f, 2-((3-(4-methylbenzyl)-4-oxo-3,4-dihydroquinazolin-2-yl)thio)-N-(5-nitrothiazol-2-yl)acetamide]: 3.5 ± 0.28 µM.

For `O=C(CSc1nc2ccccc2c(=O)n1Cc1cccnc1)Nc1ncc([N+](=O)[O-])s1` [Compound 8g, N-(5-nitrothiazol-2-yl)-2-((4-oxo-3-(pyridin-3-ylmethyl)-3,4-dihydroquinazolin-2-yl)thio)acetamide], the IC50 in experiment [2] is 2.5 ± 0.37 µM; in experiment [6], over 512 µg/mL. For the same compound, the MIC in experiment [3] and in experiment [4] was over 512 µg/mL in each case.

Take `O=C(CSc1nc2ccccc2c(=O)n1CCc1ccccc1)Nc1ncc([N+](=O)[O-])s1` [Compound 8h, N-(5-nitrothiazol-2-yl)-2-((4-oxo-3-phenethyl-3,4-dihydroquinazolin-2-yl)thio)acetamide]: the IC50 was determined as 2.22 ± 0.44 µM in experiment [2], 129 ± 5.3 µg/mL (≈ 277 µM) in experiment [5] and 172 ± 8.7 µg/mL (≈ 369 µM) in experiment [6]. Moreover, in experiment [2], the “improvement in potency compared to thiourea” value was “ten-fold”. The compound also returned a Ki in experiment [7] of 1.99 µM. Besides, in experiment [7] (Lineweaver–Burk plot), the “inhibition pattern against urease” value is “uncompetitive”. Moreover, the minimum inhibitory concentration (MIC) in experiment [3] and in experiment [4] was over 512 µg/mL in each case. With `CCCn1c(SCC(=O)Nc2ncc([N+](=O)[O-])s2)nc2ccccc2c1=O` [Compound 8i, N-(5-nitrothiazol-2-yl)-2-((4-oxo-3-propyl-3,4-dihydroquinazolin-2-yl)thio)acetamide], the IC50 in experiment [2] was 4.26 ± 0.46 µM. The same measure, in the same setting: the figure for `CC(C)n1c(SCC(=O)Nc2ncc([N+](=O)[O-])s2)nc2ccccc2c1=O` [Compound 8j, 2-((3-isopropyl-4-oxo-3,4-dihydroquinazolin-2-yl)thio)-N-(5-nitrothiazol-2-yl)acetamide] is 6.04 ± 0.57 µM; for `CCCCn1c(SCC(=O)Nc2ncc([N+](=O)[O-])s2)nc2ccccc2c1=O` [Compound 8k, 2-((3-butyl-4-oxo-3,4-dihydroquinazolin-2-yl)thio)-N-(5-nitrothiazol-2-yl)acetamide] it is 3.02 ± 0.12 µM. On the same count and under the same terms, the figure for `CC(C)Cn1c(SCC(=O)Nc2ncc([N+](=O)[O-])s2)nc2ccccc2c1=O` [Compound 8l, 2-((3-isobutyl-4-oxo-3,4-dihydroquinazolin-2-yl)thio)-N-(5-nitrothiazol-2-yl)acetamide] is 8.43 ± 0.61 µM; for `C=CCn1c(SCC(=O)Nc2ncc([N+](=O)[O-])s2)nc2ccccc2c1=O` [Compound 8m, 2-((3-allyl-4-oxo-3,4-dihydroquinazolin-2-yl)thio)-N-(5-nitrothiazol-2-yl)acetamide] it is 5.46 ± 0.38 µM; for `O=C(CSc1nc2ccccc2c(=O)n1C1CCCC1)Nc1ncc([N+](=O)[O-])s1` [Compound 8n, 2-((3-cyclopentyl-4-oxo-3,4-dihydroquinazolin-2-yl)thio)-N-(5-nitrothiazol-2-yl)acetamide] it is 2.96 ± 0.45 µM.

With `Cc1cnc(NC(=O)CSc2nnc(-c3cccc([N+](=O)[O-])c3)o2)s1` [F], in experiment [1] (thiazolbenzamide, Fig. 1F), the IC50 is 2.17 ± 0.41 µM. For `CC(=O)Oc1ccccc1C(=O)Nc1ncc([N+](=O)[O-])s1` [Nitazoxanide], in experiment [8], the “MIC50 against H. pylori” value was 4 µg/mL (≈ 13 µM) and the “MIC90 against H. pylori” value is 8 µg/mL (≈ 26 µM). On to `NC(N)=S` [Thiourea, reference compound], for which, in experiment [2] (mean ± standard error of three independent experiments, read-out: IC50 (urease inhibitory activity)), the IC50 worked out at 22.5 ± 0.44 µM. In experiment [1] (quinazolin-4(3H)-ones, Fig. 1C), the “IC50 (urease)” value is 15.06 µg/mL (≈ 198 µM). In the case of `O=C(Nc1ncc([N+](=O)[O-])s1)c1ccccc1O` [Tizoxanide], in experiment [8], the “MIC50 against H. pylori” value was 4 µg/mL (≈ 15.1 µM) and the “MIC90 against H. pylori” value was 8 µg/mL (≈ 30.2 µM).

The MIC is the lowest concentration that inhibits growth of the organism. The Ki is a dissociation constant, usually derived from enzyme kinetics or from competition with a known ligand. A lower Ki goes with tighter binding.
